Laboratory results: US11859234B2, “Method of monitoring RNase L activity” (THE TRUSTEES OF PRINCETON UNIVERSITY, priority 2016, dated 2024)

What was measured:
[1] = target: T1, RNase L (Homo sapiens, UniProt Q05823); test: RNA sequencing of RNase L cleavage products in permeabilized T47D cells stimulated with 2-5A; format: cell-based; design: endogenous in cells; details: 1 μM 2-5A for 3 minutes compared with 1 minute
T1 sequence (Q05823 1-741): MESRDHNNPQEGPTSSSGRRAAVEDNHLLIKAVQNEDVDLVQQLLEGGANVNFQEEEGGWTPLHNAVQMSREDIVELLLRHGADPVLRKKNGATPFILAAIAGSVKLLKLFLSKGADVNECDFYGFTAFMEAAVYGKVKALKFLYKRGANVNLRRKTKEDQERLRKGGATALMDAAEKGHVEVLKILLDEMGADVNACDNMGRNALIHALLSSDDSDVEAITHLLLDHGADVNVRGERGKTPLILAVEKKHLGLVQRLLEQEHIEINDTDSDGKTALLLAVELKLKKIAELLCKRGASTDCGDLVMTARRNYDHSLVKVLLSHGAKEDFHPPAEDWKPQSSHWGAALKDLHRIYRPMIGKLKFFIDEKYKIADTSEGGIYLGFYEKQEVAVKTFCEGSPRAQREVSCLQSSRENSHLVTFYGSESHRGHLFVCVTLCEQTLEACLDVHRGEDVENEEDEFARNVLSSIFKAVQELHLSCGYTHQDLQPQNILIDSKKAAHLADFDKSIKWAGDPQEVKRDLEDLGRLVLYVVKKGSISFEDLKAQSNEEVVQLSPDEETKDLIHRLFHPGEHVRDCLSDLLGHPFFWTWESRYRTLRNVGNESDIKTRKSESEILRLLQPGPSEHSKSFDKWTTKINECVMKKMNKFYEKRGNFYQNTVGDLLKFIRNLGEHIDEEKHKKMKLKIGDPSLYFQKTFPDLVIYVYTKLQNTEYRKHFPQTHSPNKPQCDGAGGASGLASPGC
Protocol: Initially, approximately 500 ng-1 μg miRvana purified small RNAs is ligated to the ligation adapter (5′-[…]-3′(SEQ ID NO: 1), underlined portion is RNA) using RtcB. It is contemplated that the adaptor has a 3′-desthiobiotin modification. The ligated RNAs are separated from free adapter by resolving on 10% urea PAGE by staining gel and excising all RNA larger than the free adapter. RNA is eluted from gel slices overnight at 4° C. in TE buffer pH 7.5 supplemented with 0.05% Triton X-100. Glycogen is added to RNAs and precipitated with 3 volumes of 100% ethanol and 1/10 volume 3M sodium acetate pH 5.2. The sample is then incubated on dry ice for 30 minutes. […]
Libraries are assessed on an Agilent High Sensitivity DNA chip, and equimolar amounts of libraries pooled and resolved on 6% native PAGE and visualized by gel staining. […] Libraries are now ready for sequencing on the Illumina HiSeq 2000 platform.
The RNA sequencing experiments were also carried out in HeLa cells that overexpress RNase L (RNLoe) and in T47D cells derived from human breast cancer and that have been permeablized and stimulated for 1 minute or 3 minutes with 1 μM 2-5A, which specifically activates RNase L but not other pathways. Results of the primary types of cleavage products detected, e.g., tRNA-His, tRNA-Pro, RNY1, RNY3, RNY4 and RNY5, were similar. […]

[2] = target: T1, RNase L; test: qPCR detection of tRNA His-GUG-36 RNase L cleavage product in poly I:C stimulated HeLa cells; format: cell-based; design: endogenous in cells; host or cells: HeLa cells; details: total RNA, RtcB ligation, qPCR with His-GUG-36-2 primer, ΔΔCt method (FIG. 4F)
Protocol: Reaction components useful in the ligation reaction include the following: 2-500 ng purified RNA, 30 μM RtcB ligase, 1 U/μL RNase inhibitor, 10 μM ligation adapter, 100 μM GTP, 20 mM HEPES pH 7.5, 2 mM MnCl2, 110 mM NaCl, 4 mM DTT, 2.2% glycerol (carried into the reaction with RtcB and RNase inhibitor). The standard reaction volume is 10 μL with incubation for 1 hour at 37° C.
After incubation 1 μL of 33 mM EDTA is added followed by a brief room temperature incubation (usually 5-10 minutes) giving a final concentration of EDTA of 3 mM. EDTA is added to chelate Mn^2+ ions that might interfere in downstream steps as well as to stop the ligation reaction.
1 μL of EDTA quenched ligation reaction is mixed with dNTPs and 10 picomoles (pmol) of RT primer in 10 μL volume. The mixture is incubated at 65° C. for 5 minutes then placed on ice (optional). The remaining components are added for a 20 μL reverse transcription reaction: RT buffer, 0.2 U μL RNase inhibitor, Reverse transcriptase (added last), and H2O for 20 μL final volume and incubated according to the RT manufacturer's specifications. […]
For the qPCR, total purified RNA from non-stimulated and poly I:C stimulated HeLa cells was serially diluted, ligated to the adapter with RtcB, reverse transcribed, and detected by qPCR using the His-GUG-36-2 primer and qPCR reverse primer.

Substance | RNA cleavage profile of RNase L products [1] | number of tRNA His-GUG-36-2 cleavage products compared to non-stimulated cells [2]
2′,5′-oligoadenylate [2-5A] | enhanced induction of RNA cleavage of the same products | 
polyinosinic-polycytidylic acid [polyI:C] |  | significantly increased
